Literature values as cited in publication PMC6940698.

Experiment: not told

O=C(O)c1cc(S(=O)(=O)O)ccc1O
log partition benzene / water: 0.34 ratio | log partition toluene / water: 0.26 ratio | log partition xylene / water: 0.23 ratio
